Assay results: PMC7925909, “The Multi-Level Mechanism of Action of a Pan-Ras Inhibitor Explains its Antiproliferative Activity on Cetuximab-Resistant Cancer Cells” (Frontiers in Molecular Biosciences, 2021)

Experiments:
HRas^G13D = molecular target: T1, HRas^G13D (Homo sapiens, UniProt P01112, G13D); assay: STD-NMR on HRas G13D-GDP; dose-dependent inhibition of intrinsic and GEF-mediated mant-nucleotide dissociation/exchange; type: binding
T1 construct: N-terminal His-tagged, residues 1-166

HRas = molecular target: T2, HRas (Homo sapiens, UniProt P01112); assay: STD-NMR and native MS of the HRas-GDP-cmp4 ternary complex; the EC50 is from SPR inhibition of RasGRF1 binding to HRas-GDP; mant-nucleotide dissociation/exchange also inhibited
T2 construct: N-terminal His-tagged, residues 1-166
T2 sequence (P01112 1-166): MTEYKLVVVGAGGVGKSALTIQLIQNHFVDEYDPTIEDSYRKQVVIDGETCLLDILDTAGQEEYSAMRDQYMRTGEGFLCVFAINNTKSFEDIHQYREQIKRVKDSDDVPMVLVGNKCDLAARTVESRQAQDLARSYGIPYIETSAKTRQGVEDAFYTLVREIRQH

T1 sequence (P01112 1-166 G13D): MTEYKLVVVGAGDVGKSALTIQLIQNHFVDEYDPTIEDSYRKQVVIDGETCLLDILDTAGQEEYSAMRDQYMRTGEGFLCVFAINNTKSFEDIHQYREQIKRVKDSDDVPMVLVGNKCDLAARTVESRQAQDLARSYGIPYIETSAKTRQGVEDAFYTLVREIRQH

With `OC[C@H]1O[C@@H](O[C@H]2[C@H](O)[C@@H](O)[C@H](N(Cc3ccc(O)c(O)c3)OCc3ccccc3)O[C@@H]2CO)[C@H](O)[C@@H](O)[C@H]1O` [cmp4] the “STD-NMR on HRas G13D-GDP; dose-dependent inhibition of intrinsic and GEF-mediate” value (HRas^G13D) was “STD analysis on HRas^G13D mutant protein saturated with cmp4 shows that cmp4 also interacts with the mutant protein” and the EC50 (HRas) was ~170 µM.
